The text below walks through data of US6939951B1, “Refolding of membrane proteins” (M-Phasys GmbH, priority 1999, dated 2005).

The nature of series [1]: cmc-value (critical micellar concentration) of detergents, own measurements of the inventors. The series is classed as physicochemical. Conditions: reflects solubility of detergent in water. An excerpt: The inventors of the submitted application have, namely, recognized that the low yield and the lacking reproducibility in the known methods is to be assigned to the second detergent. […] Further, it has to be taken care that the second detergent, in its final concentration, is above the critical micellar concentration. […] Above the cmc-value, the concentration of solved detergent-monomers is constant.
According to own measurements of the inventors, the cmc-values for alkyl-phosphorylcholine with an alkyl rest of C12, C13, C14 or C16 are 500, 150, 50 or 5 μM.

Series [2] has as its system AO adenosine receptor. As to the kind of experiment: adenosine binding to refolded receptor by flow dialysis. To be noted: refolded receptor in Alkyl(C16)phosphorylcholine/lipid micelles, after 48 hours at 4° C. Details: species or system shark Squalus acanthias. The source says:
The cDNA of one of the following receptors is, in-frame, inserted into the vector pGEX2a-c-His: AO adenosine receptor from the shark Squalus acanthias, human beta-2-adrenergic receptor, human neuropeptide YY1 receptor, human neuropeptide YY2 receptor, human melanocortine-1 receptor, human oxytocin receptor. This vector contains downstream of the Tac-promotor the sequence encoding glutathione-S-transferase and a subsequent thrombin cleavage site, followed by a polylinker sequence and, finally, six histidine codons and a stop codon.
2 ml of 3% sarcosyl are resuspended in PBS and stored on ice. 2 ml of inclusion bodies obtained in example 2 are added and mixed and treated for one minute with sonication. Immediately afterwards, 16 ml of 0.1% detergent stock solution in PBS are added.
Thereafter, a dialysis against 2 l of PBS is performed for four hours, as well as adding of 1 mM of GSH/0.1 mM GSSG from a 100× stock solution in water.
The solution is then stored for 48 hours at 4° C., whereupon, by flow dialysis, the adenosine binding was detectable, i.e. the receptor was present in native form.

Take `CCCCCCCCCCCCOP(=O)([O-])OCC[N+](C)(C)C` [alkyl-phosphorylcholine C12]: the cmc-value in series [1] amounted to 500 µM.

Take `Nc1ncnc2c1ncn2[C@@H]1O[C@H](CO)[C@@H](O)[C@H]1O` [adenosine]: the adenosine binding entry in series [2] is given as “detectable”.

`CCCCCCCCCCCCCOP(=O)([O-])OCC[N+](C)(C)C` [alkyl-phosphorylcholine C13] had a cmc-value in series [1] of 150 µM.

In series [1], `CCCCCCCCCCCCCCCCOP(=O)([O-])OCC[N+](C)(C)C` [alkyl-phosphorylcholine C16] returned a cmc-value of 5 µM.

Regarding `CCCCCCCCCCCCCCOP(=O)([O-])OCC[N+](C)(C)C` [alkyl-phosphorylcholine C14], in series [1], the cmc-value was 50 µM.
